According to PubChem BioAssay (NCI):
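Cultured in 96-well plates, cells were exposed to test compound for 48 hours across five concentrations. At the GI50, growth is halved. TGI is the concentration that stops growth completely.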

Tests used:
Assay in all cases: NCI-60 cell line screen, 48 h; in the data active = GI50 below about 0.43 µM; inactive = the rest
EKVX NSCLC = system: EKVX NSCLC
SK-MEL-5 melanoma = system: SK-MEL-5 melanoma
OVCAR-5 ovarian = system: OVCAR-5 ovarian
UACC-257 melanoma = system: UACC-257 melanoma
HT29 colon = system: HT29 colon
SN12C renal = system: SN12C renal
SNB-19 CNS = system: SNB-19 CNS
HCT-116 colon = system: HCT-116 colon
SF-539 CNS = system: SF-539 CNS
MALME-3M melanoma = system: MALME-3M melanoma

COc1ccc(C2SC(C)C(=O)N2NC(=O)C(O)c2ccccc2)cc1OC (stereo unspecified)
inactive: GI50 (EKVX NSCLC) > 100 µM | GI50 (SK-MEL-5 melanoma) > 100000 nM | GI50 (OVCAR-5 ovarian) > 100 µM | GI50 (UACC-257 melanoma) > 100 µM | GI50 (HT29 colon) > 100 µM | GI50 (SN12C renal) > 100 µM | GI50 (SNB-19 CNS) > 100000 nM | GI50 (HCT-116 colon) > 100000 nM | GI50 (SF-539 CNS) > 100000 nM
> 100 µM: TGI (EKVX NSCLC) | TGI (SK-MEL-5 melanoma) | TGI (OVCAR-5 ovarian) | TGI (UACC-257 melanoma) | TGI (HT29 colon) | TGI (SN12C renal) | TGI (SNB-19 CNS) | TGI (HCT-116 colon) | TGI (SF-539 CNS)

O=C(Nc1cccc(NC(=O)Nc2cc(C(F)(F)F)ccc2Cl)c1)Nc1cc(C(F)(F)F)ccc1Cl
14 µM: TGI (SNB-19 CNS)
22.8 µM: TGI (HCT-116 colon)
> 100 µM: TGI (OVCAR-5 ovarian)
41.4 µM: TGI (UACC-257 melanoma)
65.6 µM: TGI (SK-MEL-5 melanoma)
44.1 µM: TGI (MALME-3M melanoma)
32 µM: TGI (SF-539 CNS)
66.1 µM: TGI (HT29 colon)
inactive: GI50 (SK-MEL-5 melanoma) 3200 nM | GI50 (OVCAR-5 ovarian) 9.01 µM | GI50 (UACC-257 melanoma) 4.29 µM | GI50 (MALME-3M melanoma) 4550 nM | GI50 (HT29 colon) 4.26 µM | GI50 (SN12C renal) 2.56 µM | GI50 (SNB-19 CNS) 1770 nM | GI50 (HCT-116 colon) 2410 nM | GI50 (SF-539 CNS) 6150 nM
23.9 µM: TGI (SN12C renal)

COc1ccc(OC)c(-c2c(C#N)c(N)nc(N3CCOCC3)c2C#N)c1
> 100 µM: TGI (EKVX NSCLC) | TGI (SK-MEL-5 melanoma) | TGI (OVCAR-5 ovarian) | TGI (UACC-257 melanoma) | TGI (HT29 colon) | TGI (SN12C renal) | TGI (SNB-19 CNS) | TGI (HCT-116 colon) | TGI (SF-539 CNS)
inactive: GI50 (EKVX NSCLC) > 100 µM | GI50 (SK-MEL-5 melanoma) > 100000 nM | GI50 (OVCAR-5 ovarian) > 100 µM | GI50 (UACC-257 melanoma) 39.4 µM | GI50 (HT29 colon) > 100 µM | GI50 (SN12C renal) 73 µM | GI50 (SNB-19 CNS) > 100000 nM | GI50 (HCT-116 colon) > 100000 nM | GI50 (SF-539 CNS) > 100000 nM

O=c1nc2oc3ccc4ccccc4c3cc-2s1
> 100 µM: TGI (EKVX NSCLC) | TGI (SK-MEL-5 melanoma) | TGI (OVCAR-5 ovarian) | TGI (UACC-257 melanoma) | TGI (MALME-3M melanoma) | TGI (HT29 colon) | TGI (SN12C renal) | TGI (SNB-19 CNS) | TGI (HCT-116 colon) | TGI (SF-539 CNS)
inactive: GI50 (EKVX NSCLC) 59.6 µM | GI50 (SK-MEL-5 melanoma) 2440 nM | GI50 (OVCAR-5 ovarian) > 100 µM | GI50 (UACC-257 melanoma) > 69.9 µM | GI50 (MALME-3M melanoma) 743 nM | GI50 (HT29 colon) 18 µM | GI50 (SN12C renal) 20.4 µM | GI50 (SNB-19 CNS) 6730 nM | GI50 (HCT-116 colon) 1140 nM | GI50 (SF-539 CNS) 1580 nM

C=C1C(=O)OC2/C=C(/C)C(OC(C)=O)CC(O)/C(C)=C\C(OC(=O)/C(C)=C\C)C12 (stereo unspecified)
> 100 µM: TGI (EKVX NSCLC) | TGI (SK-MEL-5 melanoma) | TGI (OVCAR-5 ovarian) | TGI (UACC-257 melanoma) | TGI (HT29 colon) | TGI (SN12C renal) | TGI (SNB-19 CNS) | TGI (SF-539 CNS)
35.6 µM: TGI (HCT-116 colon)
30.9 µM: TGI (MALME-3M melanoma)

C[Si](C)(C)c1ccc(-c2sc(-c3ccc([Si](C)(C)C)s3)c3c2C[Si]2(C3)Cc3c(-c4ccc([Si](C)(C)C)s4)sc(-c4ccc([Si](C)(C)C)s4)c3C2)s1
> 100 µM: TGI (SK-MEL-5 melanoma) | TGI (OVCAR-5 ovarian) | TGI (UACC-257 melanoma) | TGI (MALME-3M melanoma) | TGI (HT29 colon) | TGI (SN12C renal) | TGI (SNB-19 CNS) | TGI (HCT-116 colon) | TGI (SF-539 CNS)

CCc1cccc(C)c1NC(=O)C(=O)Cc1nc2ccccc2s1
> 100 µM: TGI (EKVX NSCLC) | TGI (SK-MEL-5 melanoma) | TGI (UACC-257 melanoma) | TGI (MALME-3M melanoma) | TGI (HT29 colon) | TGI (SN12C renal) | TGI (SNB-19 CNS) | TGI (HCT-116 colon) | TGI (SF-539 CNS)

O=S1(=O)OCCOS(=O)(=O)C1Cc1ccccc1
95.6 µM: TGI (SF-539 CNS)
> 100 µM: TGI (EKVX NSCLC) | TGI (OVCAR-5 ovarian) | TGI (UACC-257 melanoma) | TGI (MALME-3M melanoma) | TGI (HT29 colon) | TGI (SN12C renal) | TGI (SNB-19 CNS) | TGI (HCT-116 colon)

COC(=O)C1=C(c2cc(OC)c(OC)c(OC)c2)OC(c2ccc(OC)c(OC)c2)C1 (stereo unspecified)
93.7 µM: TGI (SK-MEL-5 melanoma)
> 100 µM: TGI (EKVX NSCLC) | TGI (OVCAR-5 ovarian) | TGI (UACC-257 melanoma) | TGI (MALME-3M melanoma) | TGI (HT29 colon) | TGI (SN12C renal) | TGI (HCT-116 colon) | TGI (SF-539 CNS)

COC(=O)C1=CC2C(=O)OC1CC2C#N (stereo unspecified)
> 100 µM: TGI (SK-MEL-5 melanoma) | TGI (UACC-257 melanoma) | TGI (MALME-3M melanoma) | TGI (HT29 colon) | TGI (SN12C renal) | TGI (SNB-19 CNS) | TGI (HCT-116 colon) | TGI (SF-539 CNS)

COc1cc([C@H]2OC[C@H]3[C@@H]2CO[C@@H]3c2cc(OC)c3c(c2)OCO3)cc(OC)c1OC
> 100 µM: TGI (EKVX NSCLC) | TGI (OVCAR-5 ovarian) | TGI (UACC-257 melanoma) | TGI (HT29 colon) | TGI (SN12C renal) | TGI (SNB-19 CNS) | TGI (HCT-116 colon) | TGI (SF-539 CNS)
48.7 µM: TGI (SK-MEL-5 melanoma)

O=[N+]([O-])c1cccc([As]=[As]c2cccc([N+](=O)[O-])c2)c1 (stereo unspecified)
0.324 µM: TGI (SK-MEL-5 melanoma)
0.239 µM: TGI (SN12C renal)
0.252 µM: TGI (UACC-257 melanoma)
0.155 µM: TGI (MALME-3M melanoma)
active: GI50 (SK-MEL-5 melanoma) 162 nM | GI50 (OVCAR-5 ovarian) 0.0891 µM | GI50 (UACC-257 melanoma) 0.122 µM | GI50 (MALME-3M melanoma) 56.2 nM | GI50 (HT29 colon) 0.159 µM | GI50 (SN12C renal) 0.11 µM | GI50 (SNB-19 CNS) 145 nM | GI50 (HCT-116 colon) 62.7 nM | GI50 (SF-539 CNS) 73.7 nM
0.279 µM: TGI (SNB-19 CNS)
0.201 µM: TGI (SF-539 CNS)
0.216 µM: TGI (OVCAR-5 ovarian)
0.329 µM: TGI (HT29 colon)
0.181 µM: TGI (HCT-116 colon)

Cn1cc(C2=C(c3cccc(OCC(O)CO)c3)C(=O)NC2=O)c2ccccc21 (stereo unspecified)
inactive: GI50 (SK-MEL-5 melanoma) > 25000 nM | GI50 (OVCAR-5 ovarian) > 25 µM | GI50 (UACC-257 melanoma) > 25 µM | GI50 (MALME-3M melanoma) > 25000 nM | GI50 (HT29 colon) > 25 µM | GI50 (SN12C renal) > 25 µM | GI50 (SNB-19 CNS) > 25000 nM | GI50 (HCT-116 colon) > 25000 nM | GI50 (SF-539 CNS) > 25000 nM
> 25 µM: TGI (SK-MEL-5 melanoma) | TGI (OVCAR-5 ovarian) | TGI (UACC-257 melanoma) | TGI (MALME-3M melanoma) | TGI (HT29 colon) | TGI (SN12C renal) | TGI (SNB-19 CNS) | TGI (HCT-116 colon) | TGI (SF-539 CNS)

COc1ccc(C(=O)C(c2ccc(OC)cc2)C2(O)C(=O)Nc3c2ccc(Cl)c3C)cc1 (stereo unspecified)
> 100 µM: TGI (EKVX NSCLC) | TGI (SK-MEL-5 melanoma) | TGI (OVCAR-5 ovarian) | TGI (UACC-257 melanoma) | TGI (MALME-3M melanoma) | TGI (HT29 colon) | TGI (SN12C renal) | TGI (SNB-19 CNS) | TGI (HCT-116 colon)

CCSCCCN(CCCSCC)CCCSCC
> 100 µM: TGI (SK-MEL-5 melanoma) | TGI (OVCAR-5 ovarian) | TGI (UACC-257 melanoma) | TGI (HT29 colon) | TGI (SN12C renal) | TGI (SNB-19 CNS) | TGI (HCT-116 colon) | TGI (SF-539 CNS)

NC(=O)c1c(NC(=O)c2ccc3c(c2)OCO3)sc2c1CCC(=O)C2
4.67 µM: TGI (MALME-3M melanoma)
> 100 µM: TGI (SN12C renal) | TGI (SNB-19 CNS)
3.17 µM: TGI (SK-MEL-5 melanoma)
inactive: GI50 (SK-MEL-5 melanoma) 1770 nM | GI50 (MALME-3M melanoma) 2040 nM | GI50 (SN12C renal) 3.03 µM | GI50 (SNB-19 CNS) 2170 nM

Cc1ccc(CNc2c3ccccc3nc3cc(NC(=O)CCN4CCCC4)ccc23)cc1
2.92 µM: TGI (MALME-3M melanoma)
2.1 µM: TGI (OVCAR-5 ovarian)
3.27 µM: TGI (UACC-257 melanoma)
1.9 µM: TGI (SF-539 CNS)
inactive: GI50 (EKVX NSCLC) 0.862 µM | GI50 (SK-MEL-5 melanoma) 1540 nM | GI50 (OVCAR-5 ovarian) 0.793 µM | GI50 (UACC-257 melanoma) 1.69 µM | GI50 (MALME-3M melanoma) 1510 nM | GI50 (SN12C renal) 0.479 µM | GI50 (SNB-19 CNS) 624 nM | GI50 (SF-539 CNS) 618 nM
2.89 µM: TGI (SK-MEL-5 melanoma)
active: GI50 (HCT-116 colon) 390 nM
1.92 µM: TGI (SNB-19 CNS)
1.74 µM: TGI (SN12C renal)
2.25 µM: TGI (EKVX NSCLC)
1.42 µM: TGI (HCT-116 colon)
